Experimental data taken from patent US6864253B2, “Benzo[4,5]thieno[2,3-c]pyridine and Benzo[4,5]furo[2,3-c]pyridine Derivatives Useful as Inhibitors of Phosphodiesterase” (Orth-McNeil Pharmaceutical, Inc., priority 2000, dated 2005).

molecular target: PDEV (Oryctolagus cuniculus, UniProt G1SX67); test: Cyclic nucleotide phosphodiesterase (PDE) assay, inhibition of PDEV isolated from rabbit tissue; format: biochemical; conditions: 10 μM test compound; rabbit PDEV
Experimental: Briefly, rabbit or human tissues were homogenized in an ice-cold buffer solution containing 20 mM HEPES (pH 7.2), 0.25M sucrose, 1 mM EDTA, and 1 mM phenylmethylsulphonyl fluoride (PMSF). The homogenates were centrifuged at 100,000 g for 60 minutes at 4° C. The supernatant was filtered through […] filter and loaded on a Pharmacia Mono Q anion exchange column (1 ml bed volume) that was equilibrated with 20 mM HEPES, 1 mM EDTA and 0.5 mM PMSF. […] The fractions comprising various PDE activities were pooled separately and used in later studies.
The assays were adapted to a 96-well format. The enzyme was assayed in 5 mM MgCl2, 15 mM Tris HCl (pH 7.4), 0.5 mg/ml bovine serum albumin, 1 μM cGMP or cAMP, 0.1 μCi [^3H]-cGMP or [^3H]-cAMP, and 2-10 μl of column elution. The total volume of the assay was 100 μl. The reaction mixture was incubated at 30° C. for 30 minutes. The reaction was stopped by boiling for 1 minute and then cooled down on ice. The resulting [^3H] 5′-mononucleotides were further converted to uncharged [^3H]-nucleosides by adding 25 μl 1 mg/ml snake venom (Ophiophagus hannah) and incubating at 30° C. for 10 minute. The reaction was stopped by the addition of 1 ml Bio-Rad AG1-X2 resin slurry (1:3). All the charged nucleotides were bound by the resin and only the uncharged [^3H]-nucleosides remained in the supernatant after centrifuging. An aliquot of 200 μl was taken and counted by liquid scintillation. PDE activity was expressed as pmol cyclic nucleotide hydrolyzed/min/ml of enzyme preparation.
Inhibitor studies were carried out in assay buffer with a final concentration of 10% DMSO.

Row | Structure (SMILES) | % Inh @ 10 μM (rabbit)
1 | CN(C)CCn1c2c(c3ccccc31)CCN(C(=O)c1ccc(-c3ccccc3[N+](=O)[O-])o1)C2c1ccc2c(c1)OCO2 (centres unmarked) [Cmpd 41] | 93%
2 | Cc1ccc(-c2ccc(C(=O)N3CCc4c(n(CCN(C)C)c5ccccc45)C3c3ccc4c(c3)OCO4)o2)c([N+](=O)[O-])c1 (centres unmarked) [Cmpd 42] | 89%
3 | CN(C)CCn1c2c(c3ccccc31)CCN(C(=O)c1ccc(-c3cc(C(F)(F)F)ccc3Cl)o1)C2c1ccc2c(c1)OCO2 (centres unmarked) [Cmpd 43] | 22%
4 | CN(C)CCCn1c2c(c3ccccc31)CCN(C(=O)c1ccc(-c3cccc(C(F)(F)F)c3)o1)C2c1ccc2c(c1)OCO2 (centres unmarked) [Cmpd 44] | 65%
5 | CC(=O)Nc1ccc(-c2ccc(C(=O)N3CCc4c([nH]c5ccccc45)C3c3ccc4c(c3)OCO4)o2)cc1 (centres unmarked) [Cmpd 49] | 60%
6 | O=C(c1ccc(-c2ccc([N+](=O)[O-])cc2)o1)N1CCc2c([nH]c3ccccc23)C1c1ccc2c(c1)OCO2 (centres unmarked) [Cmpd 50] | 76%
7 | Cc1ccc(-c2ccc(C(=O)N3CCc4c([nH]c5ccccc45)C3c3ccc4c(c3)OCO4)o2)c([N+](=O)[O-])c1 (centres unmarked) [Cmpd 53] | 85%
8 | O=C(c1ccc(-c2cccc([N+](=O)[O-])c2)o1)N1CCc2c([nH]c3ccccc23)C1c1ccc2c(c1)OCO2 (centres unmarked) [Cmpd 54] | 81%
9 | CC(=O)Nc1cccc(-c2ccc(C(=O)N3CCc4c([nH]c5ccccc45)C3c3ccc4c(c3)OCO4)o2)c1 (centres unmarked) [Cmpd 55] | 70%
10 | O=C(c1ccc(-c2cc(C(F)(F)F)ccc2Cl)o1)N1CCc2c([nH]c3ccccc23)C1c1ccc2c(c1)OCO2 (centres unmarked) [Cmpd 57] | 76%
11 | Nc1cccc(-c2ccc(C(=O)N3CCc4c([nH]c5ccccc45)C3c3ccc4c(c3)OCO4)o2)c1 (centres unmarked) [Cmpd 59] | 92%
12 | O=C(c1ccc(-c2ccc(NCCCCO)cc2)o1)N1CCc2c([nH]c3ccccc23)C1c1ccc2c(c1)OCO2 (centres unmarked) [Cmpd 60] | 89%
13 | O=C(c1ccc(C(F)(F)F)o1)N1CCc2c([nH]c3ccccc23)C1c1ccc2c(c1)OCO2 (centres unmarked) [Cmpd 62] | 86%
14 | O=C(c1ccc(Br)o1)N1CCc2c([nH]c3ccccc23)C1c1ccc2c(c1)OCO2 (centres unmarked) [Cmpd 63] | 78%
15 | O=C(c1ccc([N+](=O)[O-])o1)N1CCc2c([nH]c3ccccc23)C1c1ccc2c(c1)OCO2 (centres unmarked) [Cmpd 64] | 83%
16 | CC(C)(C)c1ccc(C(=O)N2CCc3c([nH]c4ccccc34)C2c2ccc3c(c2)OCO3)o1 (centres unmarked) [Cmpd 65] | 66%
17 | O=C(O)C1Cc2c([nH]c3ccccc23)C(c2ccc3c(c2)OCO3)N1C(=O)c1ccc(-c2cccc([N+](=O)[O-])c2)o1 (centres unmarked) [Cmpd 67] | 50%
18 | CN(C)CCOC(=O)C1Cc2c([nH]c3ccccc23)C(c2ccc3c(c2)OCO3)N1C(=O)c1ccc(-c2cccc([N+](=O)[O-])c2)o1 (centres unmarked) [Cmpd 68] | 35%
19 | CN(C)CCNC(=O)C1Cc2c([nH]c3ccccc23)C(c2ccc3c(c2)OCO3)N1C(=O)c1ccc(-c2cccc(C(F)(F)F)c2)o1 (centres unmarked) [Cmpd 69] | 21%
20 | O=C(O)C1Cc2c([nH]c3ccccc23)C(c2ccc3c(c2)OCO3)N1C(=O)c1ccc(-c2cccc(C(F)(F)F)c2)o1 (centres unmarked) [Cmpd 70] | 46%
21 | COC(=O)C1Cc2c([nH]c3ccccc23)C(c2ccc3c(c2)OCO3)N1C(=O)c1ccc(-c2cccc([N+](=O)[O-])c2)o1 (centres unmarked) [Cmpd 73] | 20%
22 | O=C(c1ccc(-c2cccc(C(F)(F)F)c2)o1)N1CCc2c(n(Cc3ccncc3)c3ccccc23)C1c1ccc2c(c1)OCO2 (centres unmarked) [Cmpd 74] | 84%
23 | O=C(c1ccc(-c2cccc([N+](=O)[O-])c2)o1)N1CCc2c(sc3ccccc23)C1c1ccc2c(c1)OCO2 (centres unmarked) [Cmpd 76] | 27%
24 | O=C(c1ccc(-c2ccc(Cl)cc2)o1)N1CCc2c(sc3ccccc23)C1c1ccc2c(c1)OCO2 (centres unmarked) [Cmpd 77] | 58%
25 | O=C(c1ccc(-c2cccc(C(F)(F)F)c2)o1)N1CCc2c([nH]c3ccccc23)C1c1cccnc1 (centres unmarked) [Cmpd 78] | 35%
26 | N#Cc1ccc(C2c3[nH]c4ccccc4c3CCN2C(=O)c2ccc(-c3cccc([N+](=O)[O-])c3)o2)cc1 (centres unmarked) [Cmpd 80] | 27%
27 | N#Cc1ccc(C2c3[nH]c4ccccc4c3CCN2C(=O)c2ccc(-c3cccc(C(F)(F)F)c3)o2)cc1 (centres unmarked) [Cmpd 81] | 18%

Row | Structure (SMILES) | % Inh @ 10 μM (rabbit)
28 | CN(C)c1ccc(C2c3[nH]c4ccccc4c3CCN2C(=O)c2ccc(-c3cccc(C(F)(F)F)c3)o2)cc1 (centres unmarked) [Cmpd 82] | 13%
29 | CN(C)c1ccc(C2c3[nH]c4ccccc4c3CCN2C(=O)c2ccc(-c3cccc([N+](=O)[O-])c3)o2)cc1 (centres unmarked) [Cmpd 83] | 27%
30 | O=C(c1ccc(-c2cccc(C(F)(F)F)c2)o1)N1CCc2c([nH]c3ccccc23)C1c1ccc([N+](=O)[O-])cc1 (centres unmarked) [Cmpd 84] | 20%
31 | O=C(c1ccc(-c2cccc([N+](=O)[O-])c2)o1)N1CCc2c([nH]c3ccccc23)C1c1ccc([N+](=O)[O-])cc1 (centres unmarked) [Cmpd 85] | 26%
32 | O=C(c1ccc(-c2cccc([N+](=O)[O-])c2)o1)N1CCc2c([nH]c3ccccc23)C1c1ccncc1 (centres unmarked) [Cmpd 86] | 69%
33 | O=C(c1ccc(-c2cccc(C(F)(F)F)c2)o1)N1CCc2c([nH]c3ccccc23)C1c1ccncc1 (centres unmarked) [Cmpd 87] | 34%
34 | O=C(c1ccc(-c2cccc(C(F)(F)F)c2)o1)N1CCc2c([nH]c3ccccc23)C1c1ccccc1 (centres unmarked) [Cmpd 88] | 49%
35 | O=C(c1cc(-c2ccccc2)c(C(F)(F)F)s1)N1CCc2c([nH]c3ccccc23)C1c1ccc2c(c1)OCO2 (centres unmarked) [Cmpd 90] | 69%
36 | O=C(c1ccc(-c2ccc(Cl)cc2)s1)N1CCc2c([nH]c3ccccc23)C1c1ccc2c(c1)OCO2 (centres unmarked) [Cmpd 91] | 82%
37 | O=C(c1cnn(-c2ccccc2)c1C(F)(F)F)N1CCc2c([nH]c3ccccc23)C1c1ccc2c(c1)OCO2 (centres unmarked) [Cmpd 123] | 56%
38 | O=C(c1cnn(-c2ccc(Cl)cc2)c1C(F)(F)F)N1CCc2c([nH]c3ccccc23)C1c1ccc2c(c1)OCO2 (centres unmarked) [Cmpd 124] | 53%
39 | O=C(c1cnn(-c2ccc([N+](=O)[O-])cc2)c1C(F)(F)F)N1CCc2c([nH]c3ccccc23)C1c1ccc2c(c1)OCO2 (centres unmarked) [Cmpd 125] | 54%
40 | Cc1cc(C)cc(C2c3[nH]c4ccccc4c3CCN2C(=O)c2cnn(-c3ccccc3)c2C(F)(F)F)c1 (centres unmarked) [Cmpd 126] | 12%
41 | O=C(c1cnn(-c2ccccc2)c1C(F)(F)F)N1CCc2c([nH]c3ccccc23)C1c1ccc(Cl)c(C(F)(F)F)c1 (centres unmarked) [Cmpd 127] | 13%
42 | N#Cc1ccc(C2c3[nH]c4ccccc4c3CCN2C(=O)c2cnn(-c3ccccc3)c2C(F)(F)F)cc1 (centres unmarked) [Cmpd 128] | 11%
43 | COC(=O)c1ccc(C2c3[nH]c4ccccc4c3CCN2C(=O)c2cnn(-c3ccccc3)c2C(F)(F)F)cc1 (centres unmarked) [Cmpd 129] | 46%
44 | COc1ccc(C2c3[nH]c4ccccc4c3CCN2C(=O)c2cnn(-c3ccccc3)c2C(F)(F)F)cc1 (centres unmarked) [Cmpd 130] | 45%
45 | O=C(c1cnn(-c2ccccc2)c1C(F)(F)F)N1CCc2c([nH]c3ccccc23)C1c1ccc([N+](=O)[O-])cc1 (centres unmarked) [Cmpd 131] | 12%
46 | CC(C)(C)c1cc(C(=O)N2CCc3c([nH]c4ccccc34)C2c2ccc(Cl)c(Cl)c2)n(Cc2ccccc2)n1 (centres unmarked) [Cmpd 133] | 1%
47 | COc1ccc(C2c3[nH]c4ccccc4c3CCN2C(=O)c2cc(C(C)(C)C)nn2Cc2ccccc2)cc1OC (centres unmarked) [Cmpd 134] | 5%
48 | Cc1ccc(C2c3[nH]c4ccccc4c3CCN2C(=O)c2cc(C(C)(C)C)nn2Cc2ccccc2)cc1C (centres unmarked) [Cmpd 135] | 8%
49 | CC(C)(C)c1cc(C(=O)N2CCc3c([nH]c4ccccc34)C2c2ccc3c(c2)OCO3)n(Cc2ccccc2)n1 (centres unmarked) [Cmpd 136] | 18%
50 | Cc1cc(C)cc(C2c3[nH]c4ccccc4c3CCN2C(=O)c2cc(C(C)(C)C)nn2Cc2ccccc2)c1 (centres unmarked) [Cmpd 137] | −3%
51 | CC(C)(C)c1cc(C(=O)N2CCc3c([nH]c4ccccc34)C2c2ccc(Cl)c(C(F)(F)F)c2)n(Cc2ccccc2)n1 (centres unmarked) [Cmpd 138] | 13%
52 | CC(C)(C)c1cc(C(=O)N2CCc3c([nH]c4ccccc34)C2c2ccc(C#N)cc2)n(Cc2ccccc2)n1 (centres unmarked) [Cmpd 139] | −9%
53 | COC(=O)c1ccc(C2c3[nH]c4ccccc4c3CCN2C(=O)c2cc(C(C)(C)C)nn2Cc2ccccc2)cc1 (centres unmarked) [Cmpd 140] | 8%
54 | COc1ccc(C2c3[nH]c4ccccc4c3CCN2C(=O)c2cc(C(C)(C)C)nn2Cc2ccccc2)cc1 (centres unmarked) [Cmpd 141] | 11%

same assay, conditions: 10 μM test compound; rabbit PDEV; 10 µM

Row | Structure (SMILES) | % Inh @ 10 μM (rabbit)
55 | O=C(c1ccc(-c2ccc(Cl)cc2[N+](=O)[O-])o1)N1CCc2c([nH]c3ccccc23)C1c1ccc2c(c1)OCO2 (centres unmarked) [Cmpd 47] | 83%
56 | O=C(c1ccc(-c2ccc(Cl)cc2[N+](=O)[O-])o1)N1CCc2c([nH]c3ccccc23)C1c1ccc2c(c1)OCO2 (centres unmarked) [Cmpd 66] | 23%
